Test results taken from patent US20170342064A1, “COMPOUNDS FOR THE TREATMENT OF CANCER” (Bayer Pharma Aktiengesellschaft, priority 2014, published 2017).
pIC50: −log10 of the molar value.

Experiments:
[1] = test system: HeLa human cervical tumor cells; assay: Proliferation assay (crystal violet), HeLa cells; type: cell-based; details: 96 h, 4 days incubation, crystal violet staining, read-out: Inhibition of cell proliferation, cell Line: HeLa IC50
Protocol: Cultivated tumor cells (MCF7, hormone dependent human mammary carcinoma cells, ATCC HTB22; NCI-H460, human non-small cell lung carcinoma cells, ATCC HTB-177; DU 145, hormone-independent human prostate carcinoma cells, ATCC HTB-81; HeLa-MaTu, human cervical carcinoma cells, EPO-GmbH, Berlin; HeLa-MaTu-ADR, multidrug-resistant human cervical carcinoma cells, EPO-GmbH, Berlin; HeLa human cervical tumor cells, ATCC CCL-2; B16F10 mouse melanoma cells, ATCC CRL-6475) were plated at a density of 5000 cells/well (MCF7, DU145, HeLa-MaTu-ADR), 3000 cells/well (NCI-H460, HeLa-MaTu, HeLa), or 1000 cells/well (B16F10) in a 96-well multititer plate in 200 μl of their respective growth medium supplemented 10% fetal calf serum. After 24 hours, the cells of one plate (zero-point plate) were stained with crystal violet (see below), while the medium of the other plates was replaced by fresh culture medium (200 μl), to which the test substances were added in various concentrations (0 μM, as well as in the range of 0.01-30 μM; the final concentration of the solvent dimethyl sulfoxide was 0.5%). The cells were incubated for 4 days in the presence of test substances. Cell proliferation was determined by staining the cells with crystal violet: the cells were fixed by adding 20 μl/measuring point of an 11% glutaric aldehyde solution for 15 minutes at room temperature. After three washing cycles of the fixed cells with water, the plates were dried at room temperature. The cells were stained by adding 100 μl/measuring point of a 0.1% crystal violet solution (pH 3.0). After three washing cycles of the stained cells with water, the plates were dried at room temperature. The dye was dissolved by adding 100 μl/measuring point of a 10% acetic acid solution. The extinction was determined by photometry at a wavelength of 595 nm. The change of cell number, in percent, was calculated by normalization of the measured values to the extinction values of the zero-point plate (=0%) and the extinction of the untreated (0 μm) cells (=100%). The IC50 values were determined by means of a 4 parameter fit.
The reference examples described above are characterized by the following IC50 values, determined in a HeLa cell proliferation assay (as described above): […]

[2] = Stability in buffer at pH 7.4; type: physicochemical; details: buffer pH 7.4, 37° C., HPLC peak area ratio
Protocol: 0.3 mg of the test compound are solved in 0.1 ml dimethylsulfoxide and 0.4 ml acetonitrile. For complete dissolution the HPLC vial with the sample solution is sonified for about 20 seconds. Then 1.0 ml of the buffer solution is added, and the sample is again treated in the ultrasonic bath. 90 g of sodium chloride, 13.61 g of potassium dihydrogen phosphate and 83.35 g of 1 M sodium hydroxide solution are made up to 1 litre with Millipore water and then diluted 1:10. 10 μl portions of the sample solution are analysed by HPLC to determine the amount of the test compound over a period of 24 hours at 37° C. The peak areas in percentage are used for quantification. Agilent 1100 with DAD (G1315B), binary pump (G1312A), autosampler (G1329A), column oven (G1316A), thermostat (G1330B); column: Kromasil 100 C18, 250 mm×4 mm, 5 μm; column temperature: 37° C.; eluent A: water+5 ml of perchloric acid/litre, eluent B: acetonitrile. 0 min 98% A, 2% B→0-3.0 min 85% A, 15% B→3.0-8.0 min 50% A, 50% B→8.0-16.0 min 50% A, 50% B→16.0-20.0 min 10% A, 90% B→20.0-21.0 10% A, 90% B→21.0-24.0 min 98% A, 2% B→24.0-25.0 min 98% A, 2% B; flow rate: 1.5 ml/min; UV detection: 210 nm. The ratio of the peak areas (F) at different time points in relation to the peak areas at the starting time are shown in Table 1 for representative examples: […]

[3] = In vitro stability in rat plasma (HPLC detection); type: in vitro ADME, wistar rat; details: 37° C., HPLC peak area ratio
Protocol: (§1) 1 mg of test compound is dissolved in 1.25 ml dimethylsulfoxide. Then 1.25 ml water are added. 0.5 ml of this sample solution are mixed with 0.5 ml heparinized and 37° C. warm plasma (wistar rat plasma or human plasma). A first sample (10 μl) is immediately taken for HPLC analysis. In the period up to 4 h after the start of incubation further 10 μl aliquots are taken after 30, 60, 90, 120 and 240 minutes and the amount of the test compound is determined. Agilent 1100 with DAD (G1315A), binary pump (G1312A), autosampler (G1329A), column oven (G1316A), thermostat (G1330B); column: Kromasil 100 C18, 250 mm×4 mm, 5 μm; column temperature: 45° C.; eluent A: water+5 ml of perchloric acid/litre, eluent B: acetonitrile. 0 min 98% A, 2% B→0-3.0 min 85% A, 15% B→3.0-8.0 min 55% A, 45% B→8.0-16.0 min 55% A, 45% B→16.0-20.0 min 10% A, 90% B→20.0-21.0 10% A, 90% B→21.0-24.0 min 98% A, 2% B→24.0-25.0 min 98% A, 2% B; flow rate: 1.5 ml/min; UV detection: 222 nm.

[4] = In vitro stability in human plasma (HPLC detection); type: in vitro ADME; details: 37° C., HPLC peak area ratio
Protocol: as §1

| pIC50 [1] | also measured | SMILES |
| --- | --- | --- |
| ≥ 6.70 | – | COc1cc(S(C)(=O)=O)ccc1Nc1nc2cc(-c3ccc(NC(=O)[C@H](C)c4ccc(F)cc4)cc3)ccn2n1 [01.01, (2R)-2-(4-fluorophenyl)-N-[4-(2-{[2-methoxy-4-(methylsulfonyl)phenyl]amino}[1,2,4]triazolo[1,5-a]pyridin-7-yl)phenyl]propanamide] |
| ≥ 7.00 | – | COc1cc(C(=O)N2CC(F)C2)ccc1Nc1nc2cc(-c3ccc(NC(=O)[C@H](C)c4ccc(F)cc4)cc3)ccn2n1 [Reference Example 01.02, (2R)—N-{4-[2-({4-[(3-fluoroazetidin-1-yl)carbonyl]-2-methoxyphenyl}amino)[1,2,4]triazolo[1,5-a]pyridin-7-yl]phenyl}-2-(4-fluorophenyl)propanamide] |
| ≥ 7.00 | – | C[C@@H](C(=O)Nc1ccc(-c2ccn3nc(Nc4ccc(S(C)(=O)=O)cc4OCC(F)(F)F)nc3c2)cc1)c1ccc(F)cc1 [Reference Example 01.05, (2R)-2-(4-fluorophenyl)-N-[4-(2-{[4-(methylsulfonyl)-2-(2,2,2-trifluoroethoxy)phenyl]amino}[1,2,4]triazolo[1,5-a]pyridin-7-yl)phenyl]propanamide] |
| ≥ 7.00 | – | C[C@@H](C(=O)Nc1ccc(-c2ccn3nc(Nc4ccc(C(=O)N5CC(F)C5)cc4OCC(F)(F)F)nc3c2)cc1)c1ccc(F)cc1 [Reference Example 01.03, (2R)—N-{4-[2-({4-[(3-fluoroazetidin-1-yl)carbonyl]-2-(2,2,2-trifluoroethoxy)phenyl}amino)[1,2,4]triazolo[1,5-a]pyridin-7-yl]phenyl}-2-(4-fluorophenyl)propanamide] |
| ≥ 7.00 | – | COc1cc(C(=O)N2CCC2)ccc1Nc1nc2cc(-c3ccc(NC(=O)[C@H](C)c4ccc(F)cc4)cc3)ccn2n1 [Reference Example 01.06, (2R)—N-[4-(2-{[4-(azetidin-1-ylcarbonyl)-2-methoxyphenyl]amino}[1,2,4]triazolo[1,5-a]pyridin-7-yl)phenyl]-2-(4-fluorophenyl)propanamide] |
| – | % Test Compound after 24 h [F(t = 24 h) × 100/F(t = 0 h)] [2]: 0.0%; % Test Compound after 4 h [F(t = 24 h) × 100/F(t = 0 h)] [3]: 0.0%; % Test Compound after 4 h [F(t = 24 h) × 100/F(t = 0 h)] [4]: 0.0% | C[C@@H](C(=O)Nc1ccc(-c2ccn3nc(N(C(=O)OCOC(=O)[C@@H](N)C(C)(C)C)c4ccc(C(=O)N5CC(F)C5)cc4OCC(F)(F)F)nc3c2)cc1)c1ccc(F)cc1.Cl [Example 1.1, [({4-[(3-fluoroazetidin-1-yl)carbonyl]-2-(2,2,2-trifluoroethoxy)phenyl}[7-(4-{[(2R)-2-(4-fluorophenyl)propanoyl]amino}phenyl)[1,2,4]triazolo[1,5-a]pyridin-2-yl]carbamoyl)oxy]methyl 3-methyl-L-valinate hydrochloride] |
